From patent US10174065B2, “Antidiabetic enolic glucoside of phenylpyruvic acid” (ZADEC APS, priority 2010, dated 2019) come the findings set out here.

Each structure is given as a SMILES string.

For the assay, the system named is gene expression in pancreas. Briefly: Quantitative real-time PCR gene expression in pancreas of obese, insulin resistant Wistar rats. It is filed as in vivo. The method, then:
Three week old male rats were fed a high fat diet for 24 weeks to induce obesity and insulin resistance. Thereafter, rats were treated with 0.3 mg/kg Rx-1 daily for two weeks, and then with 3 mg/kg Rx-1 daily for seven days. Fasting glucose concentrations were measured before treatment, after two weeks treatment with 0.3 mg/kg Rx-1 and then again after seven days treatment with 3 mg/kg Rx-1. After treatment with 3 mg/kg Rx-1 rats were terminated and liver, muscle and pancreas biopsies were taken. Quantitative real-time PCR was used to measure the expression of 12 genes in liver and muscle samples, and ten genes in pancreas samples.
Rats were housed at the Primate Unit (Medical Research Council, South Africa). Rat management including feeding, glucose measurements and terminations, were done according to standard operating procedures (Diabetes Discovery Platform, Medical Research Council). Briefly, three week old rats were fed a high fat diet for 24 weeks to induce T2D. The study group consisted of thirteen rats, eight rats were treated by daily gavage with 0.3 mg/kg Rx-1 for two weeks, and then with 3 mg/kg Rx-1 for seven days. Five rats were used as controls and were treated with water only for three weeks. Rats were terminated after treatment and liver, muscle and pancreas tissue harvested and stored in RNalater (Ambion) as recommended by the manufacturer. The study was approved by the ethics committee of the Medical Research Council of South Africa.
RNA extracted from liver, muscle and pancreas tissue was converted to cDNA using the High Capacity Reverse Transcription kit as recommended by the manufacturers (Applied Biosystems). In brief, 2 μg of DNase-treated RNA was added to nuclease-free water in a volume of 10 μl. Thereafter, 2 μl reaction buffer, 0.8 μl dNTPs, 2 μl random primers, 1 μl RNase-inhibitor, 1 μl reverse transcriptase, and 3.2 μl nuclease-free water were added. The same reaction without the reverse transcription enzyme (minus RT reaction) was set-up to investigate genomic DNA contamination. Reactions were incubated at 25° C. for 10 min, 37° C. for 120 min, and 85° C. for 5 s to inactivate the reverse transcriptase. cDNA samples were stored at −20° C. until expression analysis.
For analysis of gene expression, 25 ng of cDNA prepared from liver, muscle and pancreas was mixed with 12.5 μl Taqman universal PCR master mix (Applied Biosystems), 1.25 μl gene-specific primer and probe mixtures (predeveloped Taqman gene expression assays, Applied Biosystems), and H2O in a final volume of 25 μl. The suffix _m represents an assay whose probe spans an exon-exon junction of the associated gene and therefore will not detect genomic DNA, while the suffix _s represents an assay whose primers and probes are designed within a single exon, such assays will detect genomic DNA.
The PCR reactions were conducted on the ABI 7500 Sequence Detection System Instrument (Applied Biosystems) using universal cycling conditions as described before. All samples were run in duplicate. Data generated on the ABI 7500 Instrument were analysed with the ABI Relative Quantitation (RQ) software (SDS V1.4) using a Ct threshold of 0.1. Relative expression levels were determined by using the 2^−ΔΔCt method, where ΔΔCt=(Ctgene studied−Cthousekeeping gene)treated−(Ctgene studied−Cthousekeeping gene)control. The gene expression was normalised to housekeeping genes to correct for differences in cDNA loading. Two gene expression assays, β-actin (ActB) and glyceraldehyde-3-phosphate dehydrogenase (Gapdh) (Table 1) were used as endogenous controls. Relative gene expression data generated by the RQ software for each of the two endogenous controls individually or the data normalised to the average of the two endogenous controls were imported into Microsoft Excel and analysed. […]
(Quantitative PCR measures a nucleic acid by following its amplification.)

As for `O=C(O)/C(=C/c1ccccc1)O[C@@H]1O[C@H](CO)[C@@H](O)[C@H](O)[C@H]1O` [RX-1, 3-Phenyl-2-(3,4,5-trihydroxy-6-hydroxymethyl-tetrahydro-pyran-2-yloxy)-acrylic acid], the “Pcsk2 or proconvertase 2 (PC2) mRNA levels” value is given as “unaffected” and the “nestin mRNA levels” value was “unaffected”. Moreover, under “not statistically significant”, the GLP1R gene expression result is “increased”, the “Gcg mRNA levels” value is listed as “increased”, the “GcgR mRNA levels” value is reported as “increased” and the Ins1 gene expression entry is “increased”. Besides, for the setting “not statistically significant”, the Ins2 gene expression entry was “increased”, the “Isl1 mRNA levels” value was “increased” and the Pdx1 gene expression entry is given as “increased”.
